From the OPERA property sets (Mansouri et al. 2018)

SMILES	logP
CC(C)(C)OC(=O)CN1C(=O)CC1Oc1ccc2ccccc2c1 (stereo not given)	3.6
O=C1CC(Sc2ccc3ccccc3c2)N1 (stereo not given)	2.64
CCOC(=O)CN1C(=O)CC1Oc1ccc2ccccc2c1 (stereo not given)	2.8
CCOC(=O)CN1C(=O)CC1Sc1ccc2ccccc2c1 (stereo not given)	3.4
O=C1CC(Oc2ccccc2C(=O)c2ccccc2)N1 (stereo not given)	1.83
O=C1CC(Oc2ccc(C(=O)C=Cc3ccccc3)cc2)N1 (stereo not given)	2.56
O=C1CC(Oc2cccc(C(=O)OCc3ccccc3)c2)N1 (stereo not given)	2.83
O=C1CC(Oc2ccc(-c3ccccc3)cc2)N1 (stereo not given)	2.61
CCOC(=O)CN1C(=O)CC1Oc1ccc(C(=O)c2ccccc2)cc1 (stereo not given)	3
O=C1CC(Oc2ccc(C(=O)c3ccccc3)cc2)N1 (stereo not given)	2.14
O=C1CC(Oc2ccc3ccccc3c2)N1 (stereo not given)	2.29
O=C1CC(Sc2ccc(Cl)cc2)N1 (stereo not given)	2.31
O=C1CC(Oc2cccc3ccccc23)N1 (stereo not given)	2.66
O=C1CC(Sc2ccccc2C(=O)OCc2ccccc2)N1 (stereo not given)	2.62
CCOC(=O)CN1C(=O)CC1Oc1ccc(C(=O)C=Cc2ccccc2)cc1 (stereo not given)	3.3
